Test results: patent US6462037B1, “1,4-benzodiazepin-2-ones useful as HIV reverse transcriptase inhibitors” (Bristol-Myers Squibb Pharma Company, priority 1999, dated 2002)
Values after ≈ are worked out from the molar mass of the structure shown.

Test system: HIV-1 (RF)
Test: HIV RNA assay: microplate based compound evaluation in HIV-1 infected MT-2 cells
Assay type: cell-based
Conditions: Human immunodeficiency virus 1, MT2, 72 h; HIV-1 (RF) infected MT-2 cells, 3 days of culture; virus inoculum standardised to this value; read-out: IC90 value (concentration of compound required to reduce the HIV RNA level by 90%)
Experimental: MT-2 and MT-4 cells were maintained in RPMI 1640 supplemented with 5% fetal calf serum (FCS) for MT-2 cells or 10% FCS for MT-4 cells, 2 mM L-glutamine and 50 μg/mL gentamycin, all from Gibco. HIV-1 RF was propagated in MT-4 cells in the same medium. Virus stocks were prepared approximately 10 days after acute infection of MT-4 cells and stored as aliquots at −70° C. Infectious titers of HIV-1 (RF) stocks were 1-3×10^7 PFU (plaque forming units)/mL as measured by plaque assay on MT-2 cells (see below). Each aliquot of virus stock used for infection was thawed only once.
For evaluation of antiviral efficacy, cells to be infected were subcultured one day prior to infection. […]
Cell lysates or purified RNA in 3 M or 5 M GED were mixed with 5 M GED and capture probe to a final guanidinium isothiocyanate concentration of 3 M and a final biotin oligonucleotide concentration of 30 nM. […] Immobilized alkaline phosphatase activity was detected by addition of 100 μL of 0.2 mM 4-methylumbelliferyl phosphate (MUBP, JBL Scientific) in buffer δ (2.5 M diethanolamine pH 8.9 (JBL Scientific), 10 mM MgCl2, 5 mM zinc acetate dihydrate and 5 mM N-hydroxyethyl-ethylene-diamine-triacetic acid). […] Fluorescence at […] was measured using a microplate fluorometer (Dynateck) exciting at […]. […]

**Q.** With `Nc1ccn([C@H]2CC[C@@H](CO)O2)c(=O)n1` [ddC, 2′,3′-dideoxycytidine] as the molecule, how does the IC90 read?
**A.** 0.2 µg/mL (≈ 0.947 µM)
